{"source": "paper PMC12172035", "about": "“The Thienopyrimidinone Gamhépathiopine Targets the QO Site of Plasmodium falciparum Cytochrome b” (ACS Infectious Diseases, 2025)", "biological_target": "T1, cytochrome b (Plasmodium falciparum, UniProt Q02768)", "T1 construct": "gene MT-CYB; native complex III in mitochondrial membrane fraction of P. falciparum 3D7 lysate; with complex III (cytochrome c1, Rieske iron-sulfur protein)", "T1 sequence (Q02768 1-376)": "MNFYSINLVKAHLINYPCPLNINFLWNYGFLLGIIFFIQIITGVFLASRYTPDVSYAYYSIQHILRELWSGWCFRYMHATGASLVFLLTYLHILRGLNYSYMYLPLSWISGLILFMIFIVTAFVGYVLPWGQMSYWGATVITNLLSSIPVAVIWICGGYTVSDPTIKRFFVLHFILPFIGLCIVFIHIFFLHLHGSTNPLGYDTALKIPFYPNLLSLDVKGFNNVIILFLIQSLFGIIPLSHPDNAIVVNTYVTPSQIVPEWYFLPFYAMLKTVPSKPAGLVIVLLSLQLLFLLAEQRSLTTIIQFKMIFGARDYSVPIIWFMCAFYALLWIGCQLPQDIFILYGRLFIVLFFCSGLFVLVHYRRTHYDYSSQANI", "assay": "complex III activity assay (decylubiquinol-driven cytochrome c reduction, […] nm) in P. falciparum membrane-enriched lysate; supported by resistance mutations in cytochrome b", "type": "cell-based", "data": [{"smiles": "Cc1ccc(-c2cc3nc(NC(C)(C)C)[nH]c(=O)c3s2)cc1", "note": "[gamhépathiopine]", "values": [{"measurement": "inhibition at 20 µM", "value": "> 93", "unit": "%"}]}]}
